According to US20230312587A1, “PTERIDINONE COMPOUNDS AND USES THEREOF” (Vertex Pharmaceutical Incorporated, priority 2018, published 2023):

Key:
lung PDX models = test: Response of lung PDX models with highest and lowest WFS1 gene expression; assay type: in vivo; details: 10 highest and 10 lowest WFS1 expressing lung PDX models
Excerpt: Finally, an in vivo study was run to evaluate the relationship between WFS1 expression in patient derived xenografts (PDX). To do this, the 10 lung PDX models with the highest WFS1 gene expression and the 10 lung PDX models with the lowest WFS1 gene expression were selected from the Oncotest compendium.

[1] = system: tumor xenografts derived from multiple cancer types; test: In vivo efficacy of Compound 136 in various tumor xenografts; parameters: species or system SCID or nude mice; key to tumor response (regression class): CR: complete regression (majority response on treatment is that tumors become undetectable); PR: partial regression (majority response on treatment is that tumors shrink by at least 330%)
Description: Female immune deficient mice (Charles River, 4-6 wks age) were anesthetized with Ketamine-Xylazine (140 mg/kg-14 mg/kg ip) and shaved. Puralube eye ointment was applied to the eyes to prevent desiccation of the corneas. Betadine and 70% ethanol was applied to the shaved location to sterilize the skin at the location of the incision. The animals were placed in a biosafety cabinet for the duration of the surgery. Using scissors, an 8 to 10 mm incision was made in the lateral flank of the skin. A tumor fragment weighing between 50 and 150 mg was placed under the skin at the incision site using forceps, and staples were used to close the incision. The staples were removed 5 to 7 days after surgery. Starting approximately two weeks after implantation, animals were weighed, and tumors were measured using caliper twice weekly. Tumor volume was calculated using the formula: volume=length×width^2×0.52.
Compound administration began when xenografts reached approximately 100-300 mm3 and continued until control xenografts reached […] of the animal's body weight. Test compounds were administered orally by gastric gavage. Percent tumor growth inhibition (TG) was calculated on the indicated treatment day. Percent TGI is defined as: [1−(del T/del C)]×100%, where del T is the final minus initial average volumes of the treated group, and del C is the final minus initial average volumes of the control group. […] The tested compounds were administered orally. Vehicle control consisted of either 0.5% methylcellulose/0.1% sodium lauryl sulfate or 20% captisol. Tumor volumes were determined by caliper measurement twice a week.
Tumors were engrafted in either SCID or nude mice. Compound 136 was administered orally once a day (QD) at 100 mg/kg. Vehicle control consisted of 0.5 methylcellulose/0.10% sodium lauryl sulfate. Tumor volumes were determined by caliper measurement twice a week. TG tumor growth inhibition at end of treatment. CR: complete regression (majority response on treatment is that tumors become undetectable), PR: partial regression (majority response on treatment is that tumors shrink by at least […]).

[2] = Bladder BXF 1036, 100 mg/kg QD oral, 21 days
[3] = Kidney RXF 631, 100 mg/kg QD oral, 21 days
[4] = Melanoma MEXF 1765, 100 mg/kg QD oral, 21 days
[5] = Multiple myeloma NCI-H929, 100 mg/kg QD oral, 21 days
[6] = Multiple myeloma OPM2, 100 mg/kg QD oral, 21 days
[7] = Non-small cell lung LXFL 529, 100 mg/kg QD oral, 21 days
[8] = Non-small cell lung LXFL 625, 100 mg/kg QD oral, 21 days
[9] = Non-small cell lung LXFL 2207, 100 mg/kg QD oral, 21 days
[10] = Non-small cell lung OD26749, 100 mg/kg QD oral, 21 days
[11] = Non-small cell lung OD33966, 100 mg/kg QD oral, 21 days

## Cc1nc(NCc2cnn(Cc3ccc(C(F)(F)F)nc3)c2)nc2c1NC(=O)[C@H](C)N2C [Compound 136, (7S)-4,7,8-trimethyl-2-(((1-((6-(trifluoromethyl)pyridin-3-yl)methyl)-111-pyrazol-4-yl)methyl)amino)-7,8-dihydropteridin-6(5H)-one]
Lung PDX models
  association between WFS1 gene expression and response in PDX models: strong association
[1]; [2]
  % TGI: > 100%
  Body weight change at end of treatment: +5.5%
  tumor response (regression class): PR
[1]; Breast DU4475, 100 mg/kg QD oral, 14 days
  % TGI: 99%
[1]; [3]
  % TGI: 89%
  Body weight change at end of treatment: +6.2%
[1]; [4]
  % TGI: > 100%
  Body weight change at end of treatment: +9.8%
  tumor response (regression class): CR
[1]; [5]
  % TGI: > 100%
  Body weight change at end of treatment: +1.8%
  tumor response (regression class): CR
[1]; [6]
  % TGI: > 100%
  Body weight change at end of treatment: −0.9%
  tumor response (regression class): CR
[1]; [7]
  % TGI: > 100%
  Body weight change at end of treatment: +5.5%
  tumor response (regression class): CR
[1]; [8]
  % TGI: > 100%
  Body weight change at end of treatment: +3.7%
  tumor response (regression class): CR
[1]; [9]
  % TGI: > 100%
  Body weight change at end of treatment: +1.5%
  tumor response (regression class): PR
[1]; [10]
  % TGI: > 100%
  Body weight change at end of treatment: −0.1%
  tumor response (regression class): CR
[1]; [11]
  % TGI: > 100%
  Body weight change at end of treatment: +4.5%
  tumor response (regression class): PR
[1]; orally once a day (QD) at 100 mg/kg, SCID or nude mice
  growth of tumor xenografts: inhibits growth of tumor xenografts derived from multiple cancer types
